Laboratory results from paper PMC4503722, “Novel Phenotypic Outcomes Identified for a Public Collection of Approved Drugs from a Publicly Accessible Panel of Assays” (PLoS ONE, 2015).
pEC50, pIC50: −log10 of the molar value. Read-outs that look alike come from different tables or passages of the source. *1 amine or outer side, *2 acyl side, *3 side chain or, on linkers, in order; H or OH if unused. Where a SMILES comes first, the peptide text is derived from it. Bridges are numbered along the chain shown (N, C = ends). Roman numbers before positions name the chains, in order. [ ]: non-standard residue; d: D form. Actinocin(9to1) = Cc1c2oc3c(C)ccc(C(=O)[*:1])c3nc-2c(C(=O)[*:2])c(N)c1=O; NMeV = CN[C@H](C(=O)O)C(C)C; Sar = CNCC(=O)O

How the values were obtained:
Experiment in all cases: cells
[1] = system: HCT116 cells treated with a GSK3β inhibitor; assay type: cell-based
[2] = system: nuclear β-catenin in C2C12 cells; assay type: cell-based
[3] = system: HCT116; assay type: cell-based
[4] = system: NCI-H716 cells; assay type: cell-based, Human; settings: NCI-H716
[5] = system: SW480; assay type: cell-based
[6] = system: INS-1E cells; assay type: cell-based, rat; settings: INS-1E
[7] = system: endothelial tube formation in co-cultures of ECFCs and ADSCs treated with VEGF; assay type: cell-based, human
[8] = system: DLD-1; assay type: cell-based
[9] = system: HeLa cells; assay type: cell-based; settings: HeLa, HeLa, read-out: CellCycle G2/M
[10] = Homo sapiens, HCT-116, HCT116 pretreated with GSK3b inhibitor, read-out: GSK3b inh pretreated_Viability ATP HCT116
[11] = Mus musculus, C2C12, S2 Table, module primary assay, 20 / 20.1 codes per legend, read-out: Wnt Pathway
[12] = Homo sapiens, HCT-116, basal, HCT116, read-out: Basal_Viability ATP HCT116
[13] = Homo sapiens, read-out: GLP 1 Secretion
[14] = Homo sapiens, SW480, basal, SW480, read-out: Basal_Viability ATP SW480
[15] = Rattus norvegicus, read-out: Insulin Secretion
[16] = Homo sapiens, DLD-1, basal, DLD-1, read-out: Basal_Viability ATP DLD-1
[17] = Homo sapiens, S2 Table, 20 = no response at highest concentration
[18] = Homo sapiens, HCT-116, GSK3b inhibitor pretreated, read-out: GSK3b inh pretreated_Viability ATP HCT116
[19] = Homo sapiens, HCT-116, basal, read-out: Basal_Viability ATP HCT116
[20] = Homo sapiens, SW480, basal, read-out: Basal_Viability ATP SW480
[21] = Homo sapiens, DLD-1, basal, read-out: Basal_Viability ATP DLD-1
[22] = Homo sapiens, IC50 / EC50, read-out: GLP 1 Secretion
[23] = Rattus norvegicus, IC50 / EC50, read-out: Insulin Secretion
[24] = Homo sapiens, IC50 / EC50; endothelial tube area, ADSC/ECFC co-culture; read-out: Anti-Angiogenesis
[25] = Mus musculus, C2C12, IC50 / EC50, C2C12 beta-catenin translocation, read-out: Wnt Pathway

| Molecule | pEC50 [2, 11] | pEC50 [4, 13] | pEC50 [6, 15] | pIC50 [1, 18] | pIC50 [3, 19] | pIC50 [5, 20] | pIC50 [8, 21] | pEC50 [4, 22] | pEC50 [6, 23] | pIC50 [7, 24] | pEC50 [2, 25] | also measured |
| --- | --- | --- | --- | --- | --- | --- | --- | --- | --- | --- | --- | --- |
| CC(=O)N(O)CCCCCNC(=O)CCC(=O)N(O)CCCCCNC(=O)CCC(=O)N(O)CCCCCN [Deferoxamine] | < 5.00 | < 5.00 | < 5.00 | – | – | – | – | – | – | – | – | pIC50 [1, 10]: < 4.70; pIC50 [3, 12]: 5.07; pIC50 [5, 14]: < 4.70; pIC50 ([7]; Homo sapiens; read-out: Anti-Angiogenesis): 5.34; pIC50 [8, 16]: < 4.70; pEC50 [9, 17]: < 5.00 |
| CCN(CC)CCNC(=O)c1c(C)[nH]c(/C=C2\C(=O)Nc3ccc(F)cc32)c1C [sunitinib, reference compound] | – | – | – | 6.44 | 5.64 | 5.56 | 5.79 | – | – | – | – | pIC50 ([1]; Homo sapiens, HCT-116, read-out: HCT-116 (GSK3β) viab. IC50, Table 2, GSK3β inhibitor LY2090314 20 nM, 72 h, Cell TiterGlo, 20 coded): 6.44; pEC50 ([2]; Mus musculus, C2C12, Table 2, C2C12, […], 20 / 20.1 coded, read-out: Wnt pot. EC50): < 5.00; pIC50 ([3]; Homo sapiens, HCT-116, 72 h, read-out: HCT-116 viab. IC50, Table 2, basal, 72 h, Cell TiterGlo, non-adherent, 20 coded): 5.64; pEC50 ([4]; Homo sapiens, read-out: GLP1 sec. EC50): < 5.00; pIC50 ([5]; Homo sapiens, SW480, 72 h, Table 2, 72 h, Cell TiterGlo, non-adherent, 20 coded, read-out: SW480 viab. IC50): 5.55; pEC50 ([6]; Rattus norvegicus, read-out: Ins. sec. EC50): < 4.70; pIC50 ([7]; Homo sapiens, read-out: Anti-Angio IC50): 7.60; pIC50 ([7]; Homo sapiens, read-out: Anti-Angiogenesis): 7.60; pIC50 ([8]; Homo sapiens, DLD-1, 72 h, Table 2, 72 h, Cell TiterGlo, non-adherent, 20 coded, read-out: DLD-1 viab. IC50): 5.80; pEC50 ([9]; Homo sapiens, IC50 / EC50): < 5.00 |
| Cc1c2oc3c(C)ccc(C(=O)N[C@@H]4C(=O)N[C@H](C(C)C)C(=O)N5CCC[C@H]5C(=O)N(C)CC(=O)N(C)[C@@H](C(C)C)C(=O)O[C@@H]4C)c3nc-2c(C(=O)N[C@@H]2C(=O)N[C@H](C(C)C)C(=O)N3CCC[C@H]3C(=O)N(C)CC(=O)N(C)[C@@H](C(C)C)C(=O)O[C@@H]2C)c(N)c1=O [Dactinomycin] (I: T[dV]P[Sar][NMeV] / II: T[dV]P[Sar][NMeV]; ester I:1-I:C, II:1-II:C; linker I:N-II:N via Actinocin(9to1)) | – | – | – | < 4.70 | – | – | – | < 5.00 | < 5.00 | 9.00 | – | pEC50 ([2]; Mus musculus, IC50 / EC50, C2C12 beta-catenin translocation, read-out: Wnt Pathway): 8.82; pIC50 ([3]; Homo sapiens, HCT-116, read-out: Basal_Viability ATP HCT116): 4.90; pIC50 ([5]; Homo sapiens, SW480, read-out: Basal_Viability ATP SW480): 7.18; pIC50 ([8]; Homo sapiens, DLD-1, read-out: Basal_Viability ATP DLD-1): 7.18 |
| O=c1[nH]c(=O)n([C@H]2C[C@H](O)[C@@H](CO)O2)cc1Br [Broxuridine] | – | – | – | < 4.70 | < 4.70 | < 4.70 | < 4.70 | < 5.00 | < 5.00 | 5.41 | < 5.00 | pEC50 ([9]; Homo sapiens, IC50 / EC50): < 5.00 |
| CNC(=O)c1cc(Oc2ccc(NC(=O)Nc3ccc(Cl)c(C(F)(F)F)c3)cc2)ccn1 [Sorafenib tosilate] | < 5.00 | < 5.00 | < 5.00 | – | – | – | – | – | – | – | – | pIC50 ([1]; Homo sapiens, HCT-116, read-out: GSK3b inh pretreated_Viability ATP HCT116): 5.95; pEC50 [9, 17]: < 5.00 |
| Janssen brand of muromonab-cd3 | – | – | – | – | – | – | – | – | – | – | – | pIC50 ([1]; GSK3b inhibitor pretreated, read-out: GSK3b inh pretreated_Viability ATP HCT116): 5.44; pEC50 ([2]; IC50 / EC50, C2C12 beta-catenin translocation, read-out: Wnt Pathway): < 5.00; pIC50 ([3]; basal, read-out: Basal_Viability ATP HCT116): 5.58; pEC50 ([4]; IC50 / EC50, read-out: GLP 1 Secretion): 6.10; pIC50 ([5]; basal, read-out: Basal_Viability ATP SW480): 5.49; pEC50 ([6]; IC50 / EC50, read-out: Insulin Secretion): < 5.00; pIC50 ([8]; basal, read-out: Basal_Viability ATP DLD-1): 5.55; pEC50 ([9]; IC50 / EC50): < 5.00 |
| NC(=O)C1(N2CCCCC2)CCN(CCCN2c3ccccc3CCc3ccc(Cl)cc32)CC1 [Clocapramine] | – | – | – | 5.44 | 5.47 | 5.43 | 5.27 | 4.74 | 5.00 | 5.47 | < 4.70 | – |
| Cc1c(C)n(CCN(C)C)c2ccc(C(=O)OCCN(C)C)cc12 [Amindocate] | – | – | – | < 4.70 | < 4.70 | 4.99 | < 4.70 | 5.92 | < 5.00 | – | < 5.00 | – |
| CC(C)(C)CC(C)(C)c1ccc(O)c(Cc2ccc(Cl)cc2Cl)c1 [Clofoctol] | < 5.00 | 6.26 | < 4.70 | – | – | – | – | – | – | – | – | pIC50 [1, 10]: 5.33; pIC50 [3, 12]: 5.27; pIC50 [5, 14]: 5.40; pIC50 [8, 16]: 5.66 |
